Series [1] is described as follows: Rate of chelating Ca2+ from mineralized dentin, inductively coupled plasma-atomic emission spectrometry. The settings on record: 0.1M EDTA vs EDTA cross-linked glycol chitosan at 50, 25 and 10 mg/ml.
Series [2] is described as follows: Transmission electron microscopy of mineralized dentin treated with demineralizing agents. The settings on record: 0.1M EDTA for 60 seconds or 25 mg/ml glycol chitosan-EDTA for 30 seconds. As for the experimental part: For wet bonding, the conditioned specimen was kept moist by removing excess water from the dentin surface with lint-free tissues prior to bonding. For dry bonding, the conditioned dentin was air-dried with […] moisture-free air for 5 sec. The dentin bond strength was measured by the following methods. After treatment with various demineralizing agents and rinsing with deionized water, each tooth segment was bonded with Adper Single Bond 2 (3M ESPE; St Paul, MN, USA). After bonding, a 4-mm thick of resin composite (Z250, 3M ESPE) was placed over the adhesive-coated dentin surface using incremental light-curing. The bonded teeth with composite build-ups were stored in water for 24 hours at 37° C. Each specimen was subsequently sectioned to 0.9 mm×0.9 mm×7 mm long sticks, each with the resin-dentin interface in the middle of the stick. Each stick was attached with cyanoacrylate glue (Zapit; Dental Ventures of America, Corona, CA, USA) to a testing jig and stressed to failure under tension in a universal testing machine (Vitrodyne V1000; Liveco Inc., Burlington, VT, USA) at a cross-head speed of 1 mm/min. The tensile load at failure was recorded and divided by the measured cross-sectioned area of each beam to yield the tensile bond strength. The mean bond strength value derived from the 4 beams of each tooth was used to represent the tensile bond strength of that particular tooth. […]

In series [3] the test system is human dental pulp stem cells (hDPSCs). As to the kind of experiment: Cytotoxicity test: mitochondrial dehydrogenase activity and intracellular DNA content. In kind it is cell-based. Conditions: hDPSCs exposed to 32% phosphoric acid, 0.1M EDTA or 25 mg/ml GCE; PBS control. The source says: FIG. 5A detects the mitochondrial dehydrogenase activity (Mito.) of human dental pulp stem cells (hDPSCs) that had been exposed to different dentin demineralizing agents.
FIG. 5B detects intracellular DNA content of human dental pulp stem cells that had been exposed to different dentin demineralizing agents.
FIG. 5A detects the mitochondrial dehydrogenase activity (Mito.) of human dental pulp stem cells (hDPSCs) that had been exposed to different dentin demineralizing agents. FIG. 5B detects intracellular DNA content of human dental pulp stem cells that had been exposed to different dentin demineralizing agents.

Series [4] is described as follows: Degree of degradation of dentin collagen in dentin mixed layers. The settings on record: ranking among 32% phosphoric acid, EDTA and GCE. The procedure:
FIG. 4B compares degree of degradation of dentin collagen in each group of the dentin mixed layers.
In this experiment, the inhibitory effect of GCE on soluble MMP-9 was evaluated using purified recombinant human MMP-9 (rhMMP-9) and a generic MMP assay kit (Sensolyte, AnaSpec Inc., Fremont, CA, USA). The MMP assay kit contains an intact thiopeptolide that is cleaved by specific MMPs to release a sulfhydryl group that produces colored 2-nitro-5-thiobenzoic acid with Ellman's reagent. A series of EDTA and GCE solutions (50 mg/mL, 25 mg/mL, 10 mg/mL, 5 mg/mL, 1 mg/mL) were used as test agents and 32% H3PO4 was used for comparison. […] Readings were taken after 60 min of incubation at 37° C. Absorbance was measured at 412 nm using a 96-well plate reader (VICTOR Nivo™, PerkinElmer). Background absorbance was determined from the “substrate control” wells and subtracted from the readings of the other wells containing the thiopeptolide substrate. The potency of rhMMP-9 inhibition by GM6001, the kit-included MMP inhibitor, and the […] concentrations of EDTA or GCE were expressed as percentages of the adjusted absorbance of the “positive control”. Inhibition of MMP (%) was calculated as 1−([A]test compound group−[A]test compound control)/([A]positive control−[A]substrate control), where [A] represents the absorbance values of the wells. […]

Consider `O=C(O)CN(CCN(CC(=O)O)CC(=O)O)CC(=O)O` [EDTA, ethylenediaminetetraacetic acid], for which the “demineralization effect (rate of chelating Ca2+)” value in series [1] is “strongest demineralization effect”. Also, the “extent of dentin demineralization in TEM image” value in series [2] was “complete demineralization in a part of area and partial demineralization in some areas”. The cell viability entry in series [3] is “followed by the EDTA group”. In addition, the “degradation rate of collagen” value in series [4] was “followed by EDTA”.
For `O=P(O)(O)O` [phosphoric acid], the cell viability entry in series [3] is recorded as “lowest”. For the same compound, in series [4], the “degradation rate of collagen” value is “highest”.

(Values after patent US11980681B2, “Material for demineralizing dentin collagen fibril, preparation method and application thereof” (THE FOURTH MILITARY MEDICAL UNIVERSITY OF CHINESE PEOPLE'S …, priority 2019, dated 2024).)
